Source: US9815850B2, “Compounds, compositions and methods” (Denali Therapeutics Inc., priority 2016, dated 2017)
Where two headings read alike, the source gives them in different places.

Columns and labels:
TNF/zVAD [1] = conditions: dose of 30 mg/kg, Table 2 of WO 2014/125444; cited from earlier work
[2] = male, cynomolgus monkey, in vivo
Method: (§1) The protein binding in plasma was determined using a Rapid Equilibrium Dialysis Device (Thermo Scientific RED Device) or 96-well dialyzer apparatus (HTDialysis LLC). […] If required, plasma samples were pre-incubated (2 hours at 37° C.) with diisopropyl fluorophosphate (DFP) at the final concentration of 100 μM to prevent compound degradation due to amide hydrolysis. Appropriate volumes of spiked samples along with blank phosphate buffer were added to either device and incubated at 37° C. for a total of 5 hours with agitation at 500 rpm. Following incubation, an equal aliquot of dialysed matrix (plasma or buffer) is added to an equal volume of the opposite blank matrix such that the volume of buffer to plasma are equal. Mixed matrix samples were extracted by protein precipitation using acetonitrile containing the appropriate IS. Samples were then centrifuged for 10 min at 2800 rpm. Supernatants were collected and diluted and then injected on to an HPLC-MS/MS or UPLC-MS/MS system. Samples were analyzed by monitoring the appropriate parent/daughter ion transitions for the test and control compounds. The peak area ratios were used to measure test item concentrations. The fraction unbound (Afu) was determined as the ratio of the peak area ratio in buffer divided by the peak area ratio in plasma.
(§2) The PK properties of test articles were determined in male Sprague-Dawley Crl:CD(SD) rats, male Beagle dogs and male cynomolgus monkeys. Studies were conducted to the highest standards of animal welfare in accordance with national legislation and under approval of the internal animal care and use committees.
(§3) Compounds were administered by IV bolus to animals following an overnight fast. […] The formulations were administered at dose volumes ranging from 0.5-2 mL/kg. The IV dose ranged from 0.5-1 mg/kg.
(§4) Following dose administration, 8-9 serial blood samples were collected over 24 hours. Samples were mixed with anticoagulant and placed on wet ice prior to processing. Plasma was harvested following centrifugation, extracted using protein precipitation with acetonitrile containing IS. The processed supernatant was analyzed using UPLC or LC-MS/MS using specific parent/daughter ion pairs for the test article and IS. Plasma concentrations were determined using a calibration curve prepared using known concentrations of analyte. Pharmacokinetic parameters utilizing measured concentrations were calculated using Phoenix WinNonlin. The unbound plasma clearance was calculated as the ratio of the total body clearance divided by the fraction unbound in plasma.

[3] = male, Sprague-Dawley Crl:CD(SD), in vivo
Method: as §1, §2, §3, §4

[4] = test system: human cryopreserved hepatocytes; test: Metabolic stability (hepatocytes); assay type: in vitro ADME; conditions: from human CLhep
[5] = target: P-gp (P-glycoprotein, MDR1) (Homo sapiens (Human), UniProt P08183); test: MDCKII-MDR1 permeability, efflux ratio; assay type: in vitro ADME; conditions: dog, MDCK-MDR1, pH 7.4, MDCKII-MDR1 cells, read-out: ER MDR1
Method: The blood brain barrier (BBB) separates circulating blood from the extracellular fluid of the central nervous system (CNS). The passive membrane permeability (Papp) and the P-gp (P-glycoprotein) substrate efflux potential were determined using the MDCKII-MDR1 cell line as an in vitro model of the effective permeability of a compound through the BBB. A bidirectional assay (Apical to Basolateral (A→B) and Basolateral to Apical (B→A)), in the absence and in the presence of GF120918 (a P-gp inhibitor) was conducted using pre-plated MDCKII-MDR1 cells (Corning HTS Transwell-96) obtained from SOLVO Biotechnology. The assay was run at 3 μM for 90 min (minutes) in triplicate using a HBSS+12.5 mM HEPES pH 7.4 transport buffer. Following incubation of samples from donor and receiver, wells were removed and measured by LC-MS/MS. Samples were extracted by protein precipitation with acetonitrile containing an appropriate internal standard (IS) having a known mass and molecular weight. The precipitate was centrifuged for 10 min at 3000 rpm (revolutions per minute). The supernatants were then collected, diluted if necessary, and injected on to the LC-MS/MS system. […] Papp (apparent permeability expressed in nm/sec [nanometer/second]) values were calculated according to the following equation: […]
Where dQ/dt is the permeability rate, C0 is the initial concentration in the donor solution (expressed as IS ratio), A and B are the surface areas of the filter (the surface area of the cell monolayer).
Monolayer efflux ratios (ER) were derived using the following equation: […]

[6] = male, Beagle, in vivo
Method: as §1
The PK properties of test articles were determined in male Sprague-Dawley Crl:CD(SD) rats, male Beagle dogs and male cynomolgus monkeys. […]
Following dose administration, 8-9 serial blood samples were collected over 24 hours. […] The processed supernatant was analyzed using UPLC or LC-MS/MS using specific parent/daughter ion pairs for the test article and IS. Plasma concentrations were determined using a calibration curve prepared using known concentrations of analyte. Pharmacokinetic parameters utilizing measured concentrations were calculated using Phoenix WinNonlin. The unbound plasma clearance was calculated as the ratio of the total body clearance divided by the fraction unbound in plasma.

[7] = test system: human cryopreserved hepatocytes; test: Metabolic stability (hepatocytes); assay type: in vitro ADME; conditions: well-stirred model
Description: Hepatic clearance is expressed as mL/min/kg.

TNF/zVAD [8] = test: TNF-driven systemic inflammatory response syndrome model; assay type: in vivo; conditions: 5 mg/kg orally 15 minutes before intravenous TNF/zVAD, mice
Description: The in vivo efficacy of compounds can be determined in mice using a TNF-driven systemic inflammatory response syndrome model as described by Duprez et. al. (2011, Immunity 35(6), 908-918) and Berger et. al. (2015, Cell Death Disc. 1, 15009). In this model system TNF/zVAD (tumor necrosis factor/Z-Val-Ala-DL-Asp-fluoromethylketone, a caspase inhibitor) treatment results in temperature loss and the production of several inflammatory cytokines. The ability of a test compound to inhibit these inflammatory effects can be measured in this model by dosing mice with test compound 15 minutes before administration of TNF/zVAD and measuring the inflammatory response. The dose required to inhibit the inflammatory response is a measure of the compounds efficacy at that dose. Using this model, Compound 42 was orally pre-dosed at 5 mg/kg 15 minutes before intravenous administration of TNF/zVAD and temperature loss in the mice was measured by an implanted temperature chip. […] The decrease in dosing has a number of important potential advantages, including requiring less frequent administration to a patient, increased patient compliance, and improved safety profile such as lower toxicities while achieving similar efficacy.

GST-hRIPK1 (8-327) [9] = target: T1, GST-hRIPK1 (8-327) (Homo sapiens (Human), UniProt Q13546); test: Fluorescent Polarization Binding (FP Binding) assay
Method: Fluorescent Polarization Binding (FP Binding) assay (Berger S. B. et al. […] Maki J. L. et al. […] Test Compounds were serially diluted in DMSO at 100 fold final concentrations in the assay (1% DMSO final). […] For negative control the enzyme addition was replaced by assay buffer only. After addition of 5 μL of fluorescent labeled ligand at twice the final concentrations in assay buffer, the plate was incubated at RT for 30 min.

[10] = test system: FADD-deficient Jurkat cells; test: Cellular necroptosis assay (human TNFα-induced); assay type: cell-based; conditions: Homo sapiens, 48 h, read-out: Cell IC50
Method: Ten concentrations of the test compounds were assessed in duplicate in two different test occasions. […] The day of the experiment cells were diluted to a density of […] (5,000 cells/well) with culture medium and added (40 μL) into the 384-well plate containing 0.2 μL/well of test compounds and reference compounds (CRCs) (200×). Cell plates were then incubated at 37° C.-5% CO2. After 30 min, necroptotic cell death was induced with human TNFα (10 ng/mL) and cell viability was evaluated 48 h later by measuring cellular ATP levels using CellTiter-Glo® kit (Promega). Luminescence was read by using Victor V (Perkin Elmer) multilabel plate reader.

GST-hRIPK1 (8-327) [11] = target: T1, GST-hRIPK1 (8-327); test: ADP-Glo kinase assay; assay type: biochemical; conditions: 50 μM ATP
Method: GST-hRIPK1 (8-327) enzyme was generated by Proteros GmbH by Baculovirus expression system.
Test compounds were diluted in DMSO and 0.1 μL of solution was dispensed to each well of a 384-well white solid microplate. The assay buffer was 50 mM HEPES pH 7.5, 50 mM NaCl, 30 mM MgCl2. The buffer was supplemented with 0.02% CHAPS, 0.01% of Pluronic F127, 0.1 mg/mL BSA and 1 mM DTT. MnCl2, 5 mM, was included in the assay buffer on the day of the experiment. The enzymatic reaction comprised 1.5 μg/mL GST-hRIPK1 (8-327) and 50 μM ATP for receptor interacting protein kinase 1 […]. 5 μL of enzyme and 5 μL of ATP were added to the plate at twice the final assay concentration and incubated at room temperature for 3 hours. Following this reaction, 10 μL of ADP-Glo reagent (Promega) was added to each well and incubated for 40 min at room temperature. This stops the kinase reaction and depletes any remaining ATP. […] The luminescence is then measured with the Envision (PerkinElmer) plate reader. Test compound inhibition was expressed as percent inhibition of internal assay controls. For concentration response curves, normalized data is fit and IC50 determined using XL-fit (IDBS) for Excel. […]
Test compound inhibition was expressed as percent inhibition of internal assay controls. For concentration response curves, normalized data is fit and IC50 determined using XL-fit (IDBS) for Excel. […]

[12] = 10 nM GST-hRIPK1 (8-327), 5 nM fluorescent labeled ligand, read-out: FP IC50

P-gp (P-glycoprotein, MDR1), sequence (P08183 whole entry): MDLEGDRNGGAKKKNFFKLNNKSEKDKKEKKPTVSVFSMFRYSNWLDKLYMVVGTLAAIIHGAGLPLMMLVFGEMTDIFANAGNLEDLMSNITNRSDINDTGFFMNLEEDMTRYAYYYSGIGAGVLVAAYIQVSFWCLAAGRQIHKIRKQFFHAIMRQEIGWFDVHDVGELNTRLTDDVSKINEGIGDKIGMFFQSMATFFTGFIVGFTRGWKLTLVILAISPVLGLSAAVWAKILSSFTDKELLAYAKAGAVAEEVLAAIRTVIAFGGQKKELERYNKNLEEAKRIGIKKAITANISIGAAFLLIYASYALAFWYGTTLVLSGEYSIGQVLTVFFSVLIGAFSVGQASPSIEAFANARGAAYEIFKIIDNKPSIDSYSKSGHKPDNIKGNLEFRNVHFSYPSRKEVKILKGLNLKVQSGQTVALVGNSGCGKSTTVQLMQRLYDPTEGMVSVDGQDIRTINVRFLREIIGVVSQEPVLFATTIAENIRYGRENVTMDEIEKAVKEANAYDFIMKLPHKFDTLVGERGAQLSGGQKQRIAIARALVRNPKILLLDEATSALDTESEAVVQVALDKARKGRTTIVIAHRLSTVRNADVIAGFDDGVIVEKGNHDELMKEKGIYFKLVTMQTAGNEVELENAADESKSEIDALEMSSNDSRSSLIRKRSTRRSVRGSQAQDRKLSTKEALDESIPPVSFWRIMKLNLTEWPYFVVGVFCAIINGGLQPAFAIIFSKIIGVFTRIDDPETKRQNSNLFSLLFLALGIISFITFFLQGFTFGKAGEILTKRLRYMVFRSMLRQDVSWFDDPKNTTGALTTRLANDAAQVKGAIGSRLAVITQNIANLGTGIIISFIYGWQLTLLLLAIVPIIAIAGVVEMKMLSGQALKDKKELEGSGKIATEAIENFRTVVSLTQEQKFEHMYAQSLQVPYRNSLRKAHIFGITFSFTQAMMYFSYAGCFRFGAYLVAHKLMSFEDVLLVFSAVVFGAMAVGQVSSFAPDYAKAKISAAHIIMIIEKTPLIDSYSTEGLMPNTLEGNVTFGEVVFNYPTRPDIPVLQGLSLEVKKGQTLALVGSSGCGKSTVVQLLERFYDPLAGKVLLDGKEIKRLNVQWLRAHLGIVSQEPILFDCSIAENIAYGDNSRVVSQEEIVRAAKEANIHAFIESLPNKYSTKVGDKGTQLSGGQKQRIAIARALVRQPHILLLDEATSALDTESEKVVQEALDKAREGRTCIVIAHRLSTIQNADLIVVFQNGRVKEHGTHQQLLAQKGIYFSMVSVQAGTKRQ
T1 sequence (Q13546 8-327): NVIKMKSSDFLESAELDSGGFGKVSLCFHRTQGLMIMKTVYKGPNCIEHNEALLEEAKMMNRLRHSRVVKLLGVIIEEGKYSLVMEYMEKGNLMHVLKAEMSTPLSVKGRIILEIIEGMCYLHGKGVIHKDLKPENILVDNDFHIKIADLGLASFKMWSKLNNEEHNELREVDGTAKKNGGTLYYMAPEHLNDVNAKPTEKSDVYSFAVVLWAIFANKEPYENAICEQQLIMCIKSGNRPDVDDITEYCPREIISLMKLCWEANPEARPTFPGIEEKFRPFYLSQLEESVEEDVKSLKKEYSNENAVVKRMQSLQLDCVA

Compound | Cyno unbound CL [2] [mL/min/kg] | Rat unbound CL [3] [mL/min/kg] | efflux ratio at 90 min, 3 μM [5] | Dog unbound CL [6] [mL/min/kg] | Human hepatocyte CLhep Avg [7] [mL/min/kg] | IC50 (GST-hRIPK1 (8-327) [9]; [12]) [nM] | further results
CN1C(=O)[C@@H](NC(=O)c2nnc(Cc3ccccc3)[nH]2)COc2ccccc21 [A, reference compound] | 117 | 77 | 6.4 | 240 | 6.8 | – | inhibition of temperature loss (TNF/zVAD [1]): 93%; clearance as % of liver blood flow [4]: approximately 32%
CN1C(=O)[C@@H](NC(=O)c2nnc(Cc3ccccc3)o2)COc2ccccc21 [B, reference compound] | – | – | 1 | – | 14 | – | –
CN1C(=O)[C@@H](NC(=O)c2cc(Cc3ccccc3)on2)COc2ccccc21 [C, reference compound] | – | – | 0.9 | – | 19 | – | –
CN1C(=O)[C@@H](NC(=O)c2nnc(Cc3ccccc3)[nH]2)COc2cccnc21 [Example 42, (S)-5-benzyl-N-(5-methyl-4-oxo-2,3,4,5-tetrahydropyrido[3,2-b][1,4]oxazepin-3-yl)-4H-1,2,4-triazole-3-carboxamide] | 42 | 22 | 19 | 64 | 0.8 | – | inhibition of temperature loss (TNF/zVAD [8]): 96%; IC50 (GST-hRIPK1 (8-327) [9]): 0.1 to 1000 nM; clearance as % of liver blood flow [4]: less than 4%; IC50 [10]: 0.1 to 1000 nM
O=C(N[C@H]1COC[C@H]2CCCN2C1=O)c1nnc(Cc2ccccc2)[nH]1 [Example 65, N-[(4S,9aR)-5-oxo-octahydropyrrolo[2,1-c][1,4]oxazepin-4-yl]-5-benzyl-4H-1,2,4-triazole-3-carboxamide] | – | – | – | – | – | – | IC50 (GST-hRIPK1 (8-327) [11]): > 10000 nM
CN1C(=O)[C@@H](NC(=O)c2nnc(C3(c4ccccc4)CC3)o2)COc2cccnc21 [Example 66, (S)—N-(5-methyl-4-oxo-2,3,4,5-tetrahydropyrido[3,2-b][1,4]oxazepin-3-yl)-5-(1-phenylcyclopropyl)-1,3,4-oxadiazole-2-carboxamide] | 116 | 113 | 1.6 | 36 | 6.3 | 0.1 to 1000 | –
CN1C(=O)[C@@H](NC(=O)c2nnc(Cc3ccccc3)[nH]2)[C@H]2C[C@H]2c2cccnc21 [Example 75A, 5-benzyl-N-((1aS,2S,8bR)-4-methyl-3-oxo-1,1a,2,3,4,8b-hexahydrocyclopropa[d]pyrido[2,3-b]azepin-2-yl)-4H-1,2,4-triazole-3-carboxamide] | 93 | 91 | 24 | – | 9.1 | 0.1 to 1000 | –
CN1C(=O)[C@@H](NC(=O)c2cc(C3(c4ccccc4)CC3)on2)COc2cccnc21 [Example 77, (S)—N-(5-methyl-4-oxo-2,3,4,5-tetrahydropyrido[3,2-b][1,4]oxazepin-3-yl)-5-(1-phenylcyclopropyl)isoxazole-3-carboxamide] | – | 595 | 0.6 | – | 19 | 0.1 to 1000 | –
O=C(N[C@@H]1C(=O)Nc2c(F)cc(F)cc2[C@@H]2C[C@H]12)c1nnc(Cc2ccccc2)[nH]1 [Example 83A, 5-benzyl-N-((1aS,2S,8bR)-5,7-difluoro-3-oxo-1,1a,2,3,4,8b-hexahydrobenzo[b]cyclopropa[d]azepin-2-yl)-4H-1,2,4-triazole-3-carboxamide] | 82 | 116 | 29 | – | 1.0 | 0.1 to 1000 | –
CN1C(=O)[C@@H](NC(=O)c2nnc(Cc3ccccc3)o2)COc2cccnc21 [Example 146, (S)-5-benzyl-N-(5-methyl-4-oxo-2,3,4,5-tetrahydropyrido[3,2-b][1,4]oxazepin-3-yl)-1,3,4-oxadiazole-2-carboxamide] | 39 | 61 | 1 | – | – | – | IC50 ([10]; human TNFα 10 ng/mL, viability after 48 h): 0.7 nM
